According to the supplement of paper PMC10307832:

Assays:
Assay in all cases: relative viability (nuclei count vs DMSO), 5 days (fraction); higher = more cells survive
Salubrinal = compound: O=C(/C=C/c1ccccc1)NC(NC(=S)Nc1cccc2cccnc12)C(Cl)(Cl)Cl [Salubrinal]
Procedure, shortened: (§1)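 Five library-drug doses, separated by factors of √10, were pinned into 1536-well plates holding lung cancer cell lines after an overnight stay at 37 °C. Cells were fixed, permeabilised and Hoechst-stained in one step after 5 days without medium change, then imaged at 4×. Viability compares treated-well with vehicle-well nuclei, counted in MetaXpress, as a median across plates. Passing plates had control CV below 25% and at least one doubling.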

[1] = compound: Cc1ccc2nc(NCCN)c3ncc(C)n3c2c1
Procedure, shortened: as §1

[2] = compound: Cc1ccc2nc(NCCN)c3ncc(C)n3c2c1 + CC(=O)Nc1cccc(-n2c(=O)n(C3CC3)c(=O)c3c(Nc4ccc(I)cc4F)n(C)c(=O)c(C)c32)c1 [Trametinib] (partner 0.02 µM)
Procedure, shortened: (§2)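 Relative viability equals treated-well nuclei counts divided by vehicle-well nuclei counts. Counts came from 4× images of lung cancer cell lines grown in 1536-well plates for 5 days after pin-tool dosing on the day after seeding. Dosing used one drug alone or a fixed anchor-drug dose plus five library-drug doses (not always all listed) in √10 steps, and values are medians of duplicate plates.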

Salubrinal + Navitoclax = compound: O=C(/C=C/c1ccccc1)NC(NC(=S)Nc1cccc2cccnc12)C(Cl)(Cl)Cl [Salubrinal] + CC1(C)CCC(c2ccc(Cl)cc2)=C(CN2CCN(c3ccc(C(=O)NS(=O)(=O)c4ccc(N[C@H](CCN5CCOCC5)CSc5ccccc5)c(S(=O)(=O)C(F)(F)F)c4)cc3)CC2)C1 [Navitoclax] (partner 0.5 µM)
Procedure, shortened: as §2

Cell Line | relative viability (Salubrinal; 0.08 µM) | relative viability (Salubrinal; 0.253 µM) | relative viability (Salubrinal; 0.8 µM) | relative viability (Salubrinal; 2.53 µM) | relative viability (Salubrinal; 8 µM) | relative viability ([1]; 0.04 µM) | relative viability ([1]; 0.1265 µM) | relative viability ([1]; 0.4 µM) | relative viability ([1]; 1.265 µM) | relative viability ([1]; 4 µM) | relative viability ([2]; first compound 0.04 µM) | relative viability ([2]; first compound 0.1265 µM) | relative viability ([2]; first compound 0.4 µM) | relative viability ([2]; first compound 1.265 µM) | relative viability ([2]; first compound 4 µM) | relative viability (Salubrinal + Navitoclax; first compound 0.08 µM) | relative viability (Salubrinal + Navitoclax; first compound 0.253 µM) | relative viability (Salubrinal + Navitoclax; first compound 0.8 µM) | relative viability (Salubrinal + Navitoclax; first compound 2.53 µM) | relative viability (Salubrinal + Navitoclax; first compound 8 µM)
NCI-H1650 | 1.1 | 0.795 | 1.03 | 0.893 | 0.912 | 0.983 | 0.903 | 0.865 | 0.915 | 0.772 | 0.57 | 0.499 | 0.739 | 0.494 | 0.427 | 1.17 | 1.06 | 1.13 | 1.19 | 1.16
NCI-H1651 | 1.13 | 0.905 | 1.13 | 0.964 | 0.988 | 1.02 | 0.95 | 0.991 | 0.971 | 0.917 | 0.842 | 0.666 | 0.844 | 0.865 | 0.829 | 1.1 | 1.01 | 1.21 | – | 0.979
NCI-H1666 | 0.953 | 0.99 | 0.987 | 0.888 | 1.2 | 1.08 | 0.951 | 0.962 | 0.993 | 0.993 | 0.907 | 0.796 | 0.773 | 0.863 | 0.8 | 0.979 | 0.992 | 1.24 | 0.93 | 0.878
NCI-H1734 | 1.02 | 0.882 | 1.14 | 1.01 | 0.909 | 0.979 | 0.99 | 0.886 | 0.9 | 0.979 | 0.719 | 0.632 | 0.755 | 0.638 | 0.707 | 0.938 | 0.755 | 0.964 | 0.858 | 0.745
NCI-H1755 | 1.07 | 1.04 | 1.06 | 0.959 | 0.968 | 1.07 | 0.979 | 0.964 | 0.992 | 0.962 | 0.757 | 0.809 | 0.769 | 0.8 | 0.776 | 1.04 | 0.983 | 0.928 | 1.05 | 0.969
NCI-H1792 | 1.05 | – | 1.32 | 1.01 | 0.811 | 0.984 | 0.987 | – | 0.963 | 0.826 | 0.645 | 0.397 | – | 0.405 | 0.488 | 0.745 | – | 1.26 | 0.669 | 0.458
NCI-H1793 | 1.14 | 1.01 | 0.938 | 1.04 | 0.823 | 0.954 | 0.946 | 0.78 | 0.878 | 0.882 | 0.371 | 0.363 | 0.525 | 0.363 | 0.4 | 0.476 | 0.432 | 0.431 | 0.351 | 0.339
NCI-H1915 | 0.973 | 0.856 | 1.12 | 1.01 | 0.973 | 0.958 | 0.998 | 0.705 | 0.93 | 0.954 | 0.304 | 0.297 | 0.28 | 0.296 | 0.294 | 0.774 | 0.778 | 0.83 | 0.759 | 0.774
NCI-H1944 | 1.11 | 1.01 | 0.975 | 0.962 | 1 | 0.985 | 0.96 | 0.784 | 1.05 | 0.941 | 0.432 | 0.476 | 0.401 | 0.381 | 0.427 | 1.07 | 1.08 | 1.12 | 1.04 | 1.05
NCI-H1975 | 0.93 | 0.82 | 1.01 | 1.04 | 0.935 | 1 | 0.951 | 0.934 | 0.85 | 0.869 | 0.329 | 0.376 | 0.369 | 0.329 | 0.321 | 1.27 | 0.796 | 1.21 | 1.15 | 1.1
NCI-H1993 | 0.98 | 0.857 | 1.02 | 1 | 1.1 | 0.948 | 0.995 | 0.779 | 0.941 | 0.789 | 0.421 | 0.632 | 0.64 | 0.34 | 0.46 | 1.02 | 0.902 | 0.976 | 0.799 | 0.733
NCI-H2009 | 1.03 | 1.03 | 1.02 | 0.993 | 0.906 | 1.04 | 0.982 | 1.03 | 1.02 | 0.947 | 0.309 | 0.251 | 0.286 | 0.273 | 0.28 | 1.16 | 1.18 | 1.19 | 1.17 | 1.07
NCI-H2023 | 1.15 | 0.996 | 1.06 | 0.955 | 0.781 | 1.06 | 0.935 | 1.09 | 1.08 | 0.843 | 0.595 | 0.561 | 0.661 | 0.574 | 0.32 | 1.05 | 0.733 | 0.96 | 1.01 | 0.932
NCI-H2085 | 1.08 | 0.976 | 1.02 | 0.947 | 1.01 | 1.03 | 1 | 0.982 | 1.04 | 1.01 | 1.03 | 0.63 | 0.502 | 0.491 | 0.499 | 1.26 | 1 | 1.23 | 1.07 | 1.21
NCI-H2087 | 1.16 | 0.931 | 1.07 | 0.989 | 0.968 | 1.13 | 1.15 | 0.861 | 0.997 | 0.953 | 0.18 | 0.208 | 0.194 | 0.16 | 0.204 | 1.04 | 1.02 | 1.11 | 0.964 | 0.945
NCI-H2126 | 1.07 | 0.921 | 1.08 | 1.05 | 0.985 | 1.1 | 0.993 | 0.958 | 0.995 | 0.893 | 0.547 | 0.563 | 0.522 | 0.607 | 0.552 | 0.897 | 0.913 | 0.914 | 0.808 | 0.867
